According to US9238003B2, “Extended or continuous wear silicone hydrogel contact lenses for the extended release of comfort molecules” (AUBURN UNIVERSITY, priority 2005, dated 2016):

Legend:
Format in all cases: physicochemical
[1] = Heat stability of HA solutions; conditions: heated 60 minutes
Experimental: The effect of heat conditions on HA solution was also assessed. In 2 mL microcentrifuge vials, 1 mL samples of HA solutions of 500 ng/mL and 10 μg/mL were heated to 105° C. and 121EC respectively. The 500 ng/mL samples were heated for 0 minutes, 5 minutes, 30 minutes and 60 minutes while the 10 μg/mL samples were heated for 15 minutes, 30 minutes, 45 minutes and 60 minutes. The sample vials were quenched in a room temperature water bath and assayed with an ELISA assay kit for HA.

[2] = Dynamic release of HA from hydrogel lenses in lacrimal solution (ELISA); conditions: largest HA, 1 million daltons; 6.5 mg HA per g PM
Experimental: Dynamic Release Studies. Dynamic release studies were conducted to measure how long a therapeutic contact lens would release drug in vitro under conditions similar to the eye surface. The studies are also able to reveal the order of the release.
The protocol for a kinetic release study begins with the synthesis of hydrogel as described previously. As each study was conducted in triplicate, three lenses were made of every HA-prepolymer formulation. A lacrimal solution isotonic with human tears (6.78 g/L NaCl, 2.18 g/L NaHCO3, 1.38 g/L Kcl, 0.084 g/L CaCl2 2H2O, pH 8) was pipetted into 50 mL centrifugation tubes, 20 mL per tube. Each lens was placed in a tube and incubated at 35EC on an orbital shaker. After measured time intervals, the lenses were extracted and deposited into fresh lacrimal solution. The lacrimal solution with HA released in it was stored at 4° C. until essayed. After data had been collected for 3-5 days, an ELISA assay for HA was used to determine the concentration in each release sample. If necessary, the samples were diluted to bring into the assay detection range.
Cumulative release curves were plotted for each lens formulation, and the data was used to calculate the rate of diffusion of HA from the hydrogel. The transport of the drug from the lens placed in a fluid environment was mathematically modeled. […]

[3] = Loading of HPMC into LFB lenses by soaking in aqueous HPMC solution
Text: The first step of this work was to assess the feasibility of loading HPMC directly into a lens. […] The mass uptake of various HPMC solutions is presented in Table 2 (showing mass loading of various HPMC concentrations and molecular weights).

[4] = Dynamic HPMC release studies, perfect sink (Sotax dissolution apparatus, DI water); conditions: soaked LFB lenses
Experimental: Dynamic HPMC Release Studies. Dynamic release studies were conducted to measure how long each therapeutic contact lens would release HPMC in-vitro. The studies were conducted with the perfect sink model in order to sustain the greatest driving force, using a Sotax Dissolution Apparatus (Horsham, Pa.), in which loaded lenses were placed in 250 mL of DI water (pH 6.4). Separate experiments were conducted to confirm the perfect sink volume.
In the Sotax apparatus, the release media was stirred at a constant rate of 30 rpm by paddles and kept at a constant temperature of 34° C. The average weight of the lenses out of the mold was 35 mg±6 mg. HPMC concentration in the release medium was determined via HPLC (Shimadzu, Japan) equipped with a refractive index detector. The mobile phase was deionized water, and a flow rate of 1 mL/min was maintained by the HPLC. A standard curve of refractive index and known HPLC concentration was established. Percent mass release curves were plotted for each lens.

[5] = Pre-polymer loading of HPMC into LFB lens formulation
Experimental: Synthesis of LFB Lenses and Synthesis of Imprinted LFB Lenses. Lenses were produced by mixing individual monomers of the LFB formulation. The monomers were kept refrigerated at 4° C. A typical formulation consisted of 1300 mg of Betacon macromer, 1300 mg of TRIS, and 1300 mg of DMA (referred to as the base formulation). The base formulation was equal parts of these monomers and used to calculate ratios of other components. Equal weights of EGDMA and PEG200DMA were added to a desired concentration anywhere between 0 and 10 wt % of the base formulation Imprinting monomers were then added between 0 and 10 wt % of the base formulation. Darocur 1173 was added to the solution to a concentration of 1% of the base formulation. The samples were thoroughly mixed by sonication for 30 minutes and then the comfort agent was added to the desired concentration. The formulations were exposed to high shear mixing for up to 1 minute and sonicated for at least 15 minutes to remove any dissolved air or air bubbles. After the comfort agent was added, the sample was sonicated and mixed until evenly dispersed.
A fixed volume was pipetted into polypropylene (PP) lens molds provided by CIBA Vision, Inc. The mass of formulation pipetted varied between 100 to 200 mg depending on the concentration of comfort agent. […]

## Hyaluronic Acid [HA]
[1]; 500 ng/mL solution
  change in signal strength (heat degradation of large HA): 50%
[1]; 10 μg/mL solution
  change in concentration (heat degradation of large HA): 30%
[2]
  time HA was diffusing out of the lens: up to 3 days

## hydroxypropyl methylcellulose [HPMC 10 KDa]
[3]; 1 Day Soak, 0.1%
  Mass Loaded from Drug Solutions: 0.32 μg/lens
[3]; 1 Day Soak, 1%
  Mass Loaded from Drug Solutions: 4.1 μg/lens
[3]; 1 Day Soak, 10%
  Mass Loaded from Drug Solutions: 5.4 μg/lens
[3]; 2 Day Soak, 0.1%
  Mass Loaded from Drug Solutions: 0.21 μg/lens
[3]; 2 Day Soak, 1%
  Mass Loaded from Drug Solutions: 3.2 μg/lens
[3]; 2 Day Soak, 10%
  Mass Loaded from Drug Solutions: 6.9 μg/lens
[3]; 7 Day Soak, 0.1%
  Mass Loaded from Drug Solutions: 1.2 μg/lens
[3]; 7 Day Soak, 1%
  Mass Loaded from Drug Solutions: 5.7 μg/lens
[3]; 7 Day Soak, 10%
  Mass Loaded from Drug Solutions: 2.9 μg/lens
[4]
  Release Time After 7 Day Soak: 30 min
  release time from soaked lenses: less than 30 minutes

## hydroxypropyl methylcellulose [HPMC 90 KDa]
[3]; 1 Day Soak, 0.1%
  Mass Loaded from Drug Solutions: 0.09 μg/lens
[3]; 1 Day Soak, 1%
  Mass Loaded from Drug Solutions: 0.07 μg/lens
[3]; 1 Day Soak, 10%
  Mass Loaded from Drug Solutions: 0.4 μg/lens
[3]; 2 Day Soak, 0.1%
  Mass Loaded from Drug Solutions: 0.09 μg/lens
[3]; 2 Day Soak, 1%
  Mass Loaded from Drug Solutions: 0.65 μg/lens
[3]; 2 Day Soak, 10%
  Mass Loaded from Drug Solutions: 0 μg/lens
[3]; 7 Day Soak, 0.1%
  Mass Loaded from Drug Solutions: 0.01 μg/lens
[3]; 7 Day Soak, 1%
  Mass Loaded from Drug Solutions: 0.48 μg/lens
[3]; 7 Day Soak, 10%
  Mass Loaded from Drug Solutions: 0 μg/lens
[4]
  Release Time After 7 Day Soak: None

## hydroxypropyl methylcellulose [HPMC 120 KDa]
[5]; 100 μm swollen lens thickness
  loading of HPMC limited by thickness: ~1,000 μg/lens
[5]; 350 μm thick lens
  maximum mass of HPMC loaded (pre-polymer loaded): ~8,000 μg/lens
[3]; 1 Day Soak, 0.1%
  Mass Loaded from Drug Solutions: 0.001 μg/lens
[3]; 1 Day Soak, 1%
  Mass Loaded from Drug Solutions: 0.003 μg/lens
[3]; 1 Day Soak, 10%
  Mass Loaded from Drug Solutions: 0.004 μg/lens
[3]; 2 Day Soak, 0.1%
  Mass Loaded from Drug Solutions: 0.08 μg/lens
[3]; 2 Day Soak, 1%
  Mass Loaded from Drug Solutions: 0.04 μg/lens
[3]; 2 Day Soak, 10%
  Mass Loaded from Drug Solutions: 0.01 μg/lens
[3]; 7 Day Soak, 0.1%
  Mass Loaded from Drug Solutions: 0.006 μg/lens
[3]; 7 Day Soak, 1%
  Mass Loaded from Drug Solutions: 0.2 μg/lens
[3]; 7 Day Soak, 10%
  Mass Loaded from Drug Solutions: 0.1 μg/lens
[3]; any solution concentration
  loading after soaking in a solution for a week: ≤ 0.2 μg/lens
[4]
  Release Time After 7 Day Soak: None
